Data on 31 compounds can be found in patent US9416111B2, “Substituted diazine and triazine spleen tyrosine kinease (Syk) inhibitors” (Merck Sharp & Dohme Corp., priority 2012, dated 2016).

The assay has as its target T1, recombinant human GST-SYK (Homo sapiens, UniProt P43405).
T1 construct: purchased Carna Biosciences 08-176
The assay can be described thus: Homogeneous Time-Resolved Fluorescence (HTRF) assay for the recombinant human Syk enzyme. The note with it: GST-hSYK 5 pM, ATP 25 μM. It is filed as biochemical. How it is done:
Homogeneous Time-Resolved Fluorescence (HTRF) Assay for the Recombinant Human Syk Enzyme
A recombinant GST-hSYK fusion protein was used to measure potency of compounds to inhibit human Syk activity. The recombinant human GST-SYK (Carna Biosciences #08-176) (5 pM final concentration) was incubated with various concentrations of the inhibitor diluted in DMSO (0.1% final concentration) for 10 minutes at room temperature in 15 mM Tris-HCl (pH 7.5), 0.01% tween 20, 2 mM DTT in 384 well plate format. To initiate the reaction the biotinylated substrate peptide (250 nM final concentration) that contains the phosphorylation site for Syk was added with magnesium (5 mM final concentration) and ATP (25 μM final concentration). Final volume of the reaction was 10 μL. Phosphorylation of the peptide was allowed to proceed for 45′ at room temperature. To quench the reaction and detect the phosphorylated product, 2 nM of a Europium-anti-phosphotyrosine antibody (Perkin Elmer #AD0161) and 70 nM SA-APC (Perkin-Elmer #CR130-100) were added together in 15 mM Tris pH 7.5, 40 mM EDTA, 0.01% tween 20. Final volume of the quenching solution was 10 μL. The resulting HTRF signal was measured after 30 minutes on an EnVision (Perkin-Elmer) reader using a time-resolved fluorescence protocol.

[1] abbreviates: IC50 rated in classes, read-out: rhSYK Activity.

The structures appear in SMILES notation. Read-outs that look alike come from different tables or passages of the source.

Consider `COCC(Nc1ncc(-c2cc(C)cc(Nc3nccc(C(F)(F)F)n3)c2)cn1)C(=O)O` (racemic) [Example 2.38, O-methyl-N-[5-(3-methyl-5-{[4-(trifluoromethyl)pyrimidin-2-yl]amino}phenyl)pyrimidin-2-yl]serine], for which the IC50 under setting [1] is below 100 nM.

As to `Cc1cc(Nc2nccc(C(F)(F)F)n2)cc(-c2cnc(NC(CO)C(=O)O)nc2)c1` (racemic) [Example 2.41, N-[5-(3-methyl-5-{[4-(trifluoromethyl)pyrimidin-2-yl]amino}phenyl)pyrimidin-2-yl]serine], under setting [1], the IC50 was below 100 nM. Turning to `CNC(=O)C1CCCN1c1ncc(-c2cc(C)cc(Nc3nccc(C(F)(F)F)n3)c2)cn1` (racemic) [Example 2.70, N-methyl-1-[5-(3-methyl-5-{[4-(trifluoromethyl)pyrimidin-2-yl]amino}phenyl)pyrimidin-2-yl]prolinamide], under setting [1], the IC50 was below 100 nM. Regarding `Cc1cc(Nc2nccc(C(F)(F)F)n2)cc(-c2cnc(N3CCCC3C(N)=O)nc2)c1` (racemic) [Example 2.74, 1-[5-(3-methyl-5-{[4-(trifluoromethyl)pyrimidin-2-yl]amino}phenyl)pyrimidin-2-yl]prolinamide], the IC50 under setting [1] was below 100 nM. Turning to `Cc1cc(Nc2nccc(C(F)F)n2)cc(-c2cnc([C@@H](C)[C@H]3CC[C@H](C(=O)O)CC3)nc2)c1` (single isomer, unassigned) [Example 6.1, trans-4-{1-[5-(3-{[4-(difluoromethyl)pyrimidin-2-yl]amino}-5-methylphenyl)pyrimidin-2-yl]ethyl}cyclohexanecarboxylic acid], the IC50 was below 100 nM under setting [1] and 0.6 nM (values in text, read-out: IC50). Take `Cc1cc(Nc2nccc(C(F)F)n2)cc(-c2cnc([C@@H](C)[C@H]3CC[C@H](C(=O)O)CC3)nc2)c1` (single isomer, unassigned) [Example 6.2, trans-4-{1-[5-(3-{[4-(difluoromethyl)pyrimidin-2-yl]amino}-5-methylphenyl)pyrimidin-2-yl]ethyl}cyclohexanecarboxylic acid]: the IC50 under setting [1] is below 100 nM and the IC50 (values in text, read-out: IC50) is 0.3 nM. As for `Cc1cc(Nc2nccc(C(F)F)n2)cc(-c2cnc([C@H](C)[C@H]3CC[C@H](C(=O)O)[C@H](C)C3)nc2)c1` (single isomer, unassigned) [Example 7.1], under setting [1], the IC50 was below 100 nM. `Cc1cc(Nc2nccc(C(F)F)n2)cc(-c2cnc([C@H](C)[C@H]3CC[C@H](C(=O)O)[C@H](C)C3)nc2)c1` (single isomer, unassigned) [Example 7.2]: the IC50 under setting [1] was below 100 nM and the IC50 (values in text, read-out: IC50) was below 0.5 nM.

Consider `Cc1cc(Nc2nccc(C(F)F)n2)cc(-c2cnc([C@H](C)[C@H]3CC[C@H](C(=O)O)[C@H](C)C3)nc2)c1` (single isomer, unassigned) [Example 7.3], for which the IC50 under setting [1] was below 100 nM. Take `Cc1cc(Nc2nccc(C(F)F)n2)cc(-c2cnc([C@H](C)[C@H]3CC[C@H](C(=O)O)[C@H](C)C3)nc2)c1` (single isomer, unassigned) [Example 7.4]: the IC50 was below 100 nM under setting [1] and 0.8 nM (values in text, read-out: IC50). Take `Cc1cc(Nc2nccc(C(F)F)n2)cc(-c2cnc([C@H](C)[C@H]3CC[C@H](C(=O)O)[C@H](C)C3)nc2)c1` (single isomer, unassigned) [Example 7.5]: the IC50 by setting is: under setting [1], below 100 nM; (values in text, read-out: IC50) 0.8 nM. For the compound `Cc1cc(Nc2nccc(C(F)F)n2)cc(-c2cnc([C@H](C)[C@H]3CC[C@H](C(=O)O)[C@H](C)C3)nc2)c1` (single isomer, unassigned) [Example 7.6], the IC50 was below 100 nM under setting [1] and 0.7 nM (values in text, read-out: IC50).

For `Cc1cc(Nc2nccc(C(F)F)n2)cc(-c2cnc([C@H](C)[C@H]3CC[C@H](C(=O)O)[C@H](C)C3)nc2)c1` (single isomer, unassigned) [Example 7.7], the IC50 is below 100 nM under setting [1] and 1.2 nM (values in text, read-out: IC50).

For `Cc1cc(Nc2nccc(C(F)F)n2)cc(-c2cnc([C@H](C)[C@H]3CC[C@H](C(=O)O)[C@H](C)C3)nc2)c1` (single isomer, unassigned) [Example 7.8], the IC50 under setting [1] is below 100 nM. With `Cc1cc(Nc2nccc(C(F)(F)F)n2)cc(-c2cncnc2)c1` [Example 1.1, N-(3-methyl-5-pyrimidin-5-ylphenyl)-4-(trifluoromethyl)pyrimidin-2-amine], the IC50 was below 100 nM under setting [1] and 66.2 nM (values in text, read-out: IC50). For the compound `COc1ncc(-c2cc(C)cc(Nc3nccc(C(F)(F)F)n3)c2)cn1` [Example 1.2, N-[3-(2-methoxypyrimidin-5-yl)-5-methylphenyl]-4-(trifluoromethyl)pyrimidin-2-amine], the IC50 under setting [1] is below 100 nM.

In the case of `Cc1cc(Nc2nccc(C(F)(F)F)n2)cc(-c2cnc(N)nc2)c1` [Example 1.3, N-[3-(2-aminopyrimidin-5-yl)-5-methylphenyl]-4-(trifluoromethyl)pyrimidin-2-amine], under setting [1], the IC50 was below 100 nM. For the compound `COCCNc1ncc(-c2cc(C)cc(Nc3nccc(C(F)(F)F)n3)c2)cn1` [Example 1.4, N-(3-{2-[(2-methoxyethyl)amino]pyrimidin-5-yl}-5-methylphenyl)-4-(trifluoromethyl)pyrimidin-2-amine], under setting [1], the IC50 was below 100 nM. On the same count and under the same terms, the same measure for `COc1ccnc(Nc2cc(C)cc(-c3cnc(CCC(=O)O)nc3)c2)n1` [Example 1.5, 3-(5-{3-[(4-methoxypyrimidin-2-yl)amino]-5-methylphenyl}pyrimidin-2-yl)propanoic acid]: below 100 nM; for `CCOC(=O)CCc1ncc(-c2cc(C)cc(Nc3nccc(C4CC4)n3)c2)cn1` [Example 1.6, ethyl 3-(5-{3-[(4-cyclopropylpyrimidin-2-yl)amino]-5-methylphenyl}pyrimidin-2-yl)pronanoate]: below 100 nM. Still for that read-out and setting: the same measure for `CCOC(=O)CCc1ncc(-c2cc(C)cc(Nc3nccc(C)n3)c2)cn1` [Example 1.7, ethyl 3-(5-{3-methyl-5-[(4-methylpyrimidin-2-yl)amino]phenyl}pyrimidin-2-yl)propanoate]: 100 to 1000 nM. Turning to `Cc1cc(Nc2nccc(C(F)(F)F)n2)cc(-c2cnc(NC(C)(CO)CO)nc2)c1` [Example 2.1, 2-methyl-2-{[5-(3-methyl-5-{[4-(trifluoromethyl)pyrimidin-2-yl]amino}phenyl)pyrimidin-2-yl]amino}propane-1,3-diol], the IC50 runs as follows: under setting [1], below 100 nM; (values in text, read-out: IC50) 17.2 nM.

On to `Cc1cc(Nc2nccc(C(F)(F)F)n2)cc(-c2cnc(NC(C)(C)C(=O)O)nc2)c1` [Example 2.2, 2-methyl-N-[5-(3-methyl-5-{[4-(trifluoromethyl)pyrimidin-2-yl]amino}phenyl)pyrimidin-2-yl]alanine], for which, under setting [1], the IC50 was below 100 nM.

For the compound `Cc1cc(Nc2nccc(C(F)(F)F)n2)cc(-c2cnc(NC3(C(=O)O)CC3)nc2)c1` [Example 2.3, 1-{[5-(3-methyl-5-{[4-(trifluoromethyl)pyrimidin-2-yl]amino}phenyl)pyrimidin-2-yl]amino}cyclopropanecarboxylic acid], under setting [1], the IC50 is below 100 nM. On the same count and under the same terms, the same measure for `Cc1cc(Nc2nccc(C(F)(F)F)n2)cc(-c2cnc(NC3(C(=O)O)CCC3)nc2)c1` [Example 2.4, l-{[5-(3-methyl-5-{[4-(trifluoromethyl)pyrimidin-2-yl]amino}phenyl)pyrimidin-2-yl]amino}cyclobutanecarboxylic acid]: below 100 nM; for `Cc1cc(Nc2nccc(C(F)(F)F)n2)cc(-c2cnc(N3CCC[C@H]3C(=O)O)nc2)c1` [Example 2.5, 1-[5-(3-methyl-5-{[4-(trifluoromethyl)pyrimidin-2-yl]amino}phenyl)pyrimidin-2-yl]-L-proline]: below 100 nM.

Turning to `Cc1cc(Nc2nccc(C(F)(F)F)n2)cc(-c2cnc(N3CC[C@H]3C(=O)O)nc2)c1` [Example 2.6, (2S)-l-[5-(3-methyl-5-{[4-(trifluoromethyl)pyrimidin-2-yl]amino}phenyl)pyrimidin-2-yl]azetidine-2-carboxylic acid], the IC50 under setting [1] is below 100 nM. In the case of `Cc1cc(Nc2nccc(C(F)(F)F)n2)cc(-c2cnc(NC3CCNC3=O)nc2)c1` (stereo not shown) [Example 2.7, 3-{[5-(3-methyl-5-{[4-(trifluoromethyl)pyrimidin-2-yl]amino}phenyl)pyrimidin-2-yl]amino}pyrrolidin-2-one], the IC50 under setting [1] is below 100 nM.

Regarding `Cc1cc(Nc2nccc(C(F)(F)F)n2)cc(-c2cnc(NCCC(=O)O)nc2)c1` [Example 2.8, N-[5-(3-methyl-5-{[4-(trifluoromethyl)pyrimidin-2-yl]amino}phenyl)pyrimidin-2-yl]-beta-alanine], the IC50 under setting [1] is below 100 nM. For `Cc1cc(Nc2nccc(C(F)(F)F)n2)cc(-c2cnc(N(C)[C@@H](C)C(=O)O)nc2)c1` [Example 2.9, N-methyl-N-[5-(3-methyl-5-{[4-(trifluoromethyl)pyrimidin-2-yl]amino}phenyl)pyrimidin-2-yl]-L-alanine], under setting [1], the IC50 is below 100 nM. On the same count and under the same terms, the same measure for `Cc1cc(Nc2nccc(C(F)(F)F)n2)cc(-c2cnc(N3CCC(O)C3)nc2)c1` (stereo not drawn) [Example 2.10, l-[5-(3-methyl-5-{[4-(trifluoromethyl)pyrimidin-2-yl]amino}phenyl)pyrimidin-2-yl]pyrrolidin-3-ol]: below 100 nM.
